Legend:
Assay in all cases: MTT cell proliferation assay
Format in all cases: cell-based
WI-38 cells = settings: Homo sapiens, 72-hour MTT
How it was run: (§1)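 After overnight attachment at 5,000-10,000 cells per well, cultures receive test compound at eight levels (1 nM to 30 μM) for 72 h, followed by roughly 4 h with MTT. Dissolved formazan is quantified at 490 nm, giving percent inhibition against untreated control.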

Calu-3 cells = settings: Homo sapiens, 72-hour MTT
How it was run: as §1

LS-174T cells = settings: Homo sapiens, LS174T, 72-hour MTT
How it was run: as §1

HCC-1143 cells = settings: Homo sapiens, HCC1143, 72-hour MTT
How it was run: as §1

NCI-H28 cells = settings: Homo sapiens, 72-hour MTT
How it was run: as §1

SHP-77 cells = settings: Homo sapiens, SHP77, 72-hour MTT
How it was run: as §1

C6 cells = settings: Rattus norvegicus, 72-hour MTT
How it was run: as §1

MDA-MB-415 cells = settings: Homo sapiens, 72-hour MTT
How it was run: as §1

U118MG cells = settings: Homo sapiens, U-118-MG, 72-hour MTT
How it was run: as §1

DU-4475 cells = settings: Homo sapiens, 72-hour MTT
How it was run: as §1

TFK-1 cells = settings: 72-hour MTT
How it was run: as §1

Jurkat cells = settings: Homo sapiens, 72-hour MTT
How it was run: as §1

HEL.92.1.7 cells = settings: Homo sapiens, 72-hour MTT
How it was run: as §1

SHSY5Y cells = settings: Homo sapiens, SH-SY5Y, 72-hour MTT
How it was run: as §1

NCI-H889 cells = settings: Homo sapiens, 72-hour MTT
How it was run: as §1

IMR-90 cells = settings: Homo sapiens, 72-hour MTT
How it was run: as §1

MCF-10A cells = settings: Homo sapiens, 72-hour MTT
How it was run: as §1

Toledo cells = settings: Homo sapiens, 72-hour MTT
How it was run: as §1

HH cells = settings: Homo sapiens, 72-hour MTT
How it was run: as §1

MDA-MB-361 cells = settings: Homo sapiens, 72-hour MTT
How it was run: as §1

BT-474 cells = settings: Homo sapiens, 72-hour MTT
How it was run: as §1

NCI-H69 cells = settings: Homo sapiens, 72-hour MTT
How it was run: as §1

PBMC = settings: 72-hour MTT
How it was run: as §1

HPAF-II cells = settings: Homo sapiens, 72-hour MTT
How it was run: as §1

MHCC97H cells = settings: Homo sapiens, 72-hour MTT
How it was run: as §1

LS-180 cells = settings: Homo sapiens, LS180, 72-hour MTT
How it was run: as §1

NCI-H2122 cells = settings: Homo sapiens, 72-hour MTT
How it was run: as §1

BL-2 cells = settings: BL2, 72-hour MTT
How it was run: as §1

MV-4-11 cells = settings: Homo sapiens, MV4-11, 72-hour MTT
How it was run: as §1

PATU-8988S cells = settings: PaTuÂ 8988s, 72-hour MTT
How it was run: as §1

PL-45 cells = settings: PL45, 72-hour MTT
How it was run: as §1

Calu-6 cells = settings: Homo sapiens, 72-hour MTT
How it was run: as §1

SW-480 cells = settings: Homo sapiens, SW480, 72-hour MTT
How it was run: as §1

CAMA-1 cells = settings: Homo sapiens, 72-hour MTT
How it was run: as §1

A549 cells = settings: Homo sapiens, 72-hour MTT
How it was run: as §1

MOLT4 cells = settings: Homo sapiens, MOLT-4, 72-hour MTT
How it was run: as §1

HCI-H358 cells = settings: 72-hour MTT
How it was run: as §1

NCI-H1993 cells = settings: Homo sapiens, 72-hour MTT
How it was run: as §1

NCI-H1563 cells = settings: Homo sapiens, 72-hour MTT
How it was run: as §1

MiaPaCa-2 cells = settings: Homo sapiens, MIA PaCa-2, 72-hour MTT
How it was run: as §1

Nc1ccc(/C=C/C(=O)NCc2cc3cc(-c4ccc(C(=O)N5CCC(F)(F)CC5)cn4)cc(C(F)(F)F)c3o2)cn1 [Compound 585, (E)-3-(6-aminopyridin-3-yl)-N-((5-(5-(4,4-difluoropiperidine-1-carbonyl)pyridin-2-yl)-7-(trifluoromethyl)benzofuran-2-yl)methyl)acrylamide]
IC50 (WI-38 cells): 0.22 µM
IC50 (Calu-3 cells): 0.33 µM
IC50 (LS-174T cells): 8.8 µM
IC50 (HCC-1143 cells): 0.21 µM
IC50 (NCI-H28 cells): 0.2 µM
IC50 (SHP-77 cells): 0.21 µM
IC50 (C6 cells): > 10 µM
IC50 (MDA-MB-415 cells): 1.02 µM
IC50 (U118MG cells): 0.05 µM
IC50 (DU-4475 cells): 0.09 µM
IC50 (TFK-1 cells): 1.03 µM
IC50 (Jurkat cells): 0.04 µM
IC50 (HEL.92.1.7 cells): 0.12 µM
IC50 (SHSY5Y cells): 0.12 µM
IC50 (NCI-H889 cells): 0.06 µM
IC50 (IMR-90 cells): 4 µM
IC50 (MCF-10A cells): 0.14 µM
IC50 (Toledo cells): 0.05 µM
IC50 (HH cells): 0.09 µM
IC50 (MDA-MB-361 cells): > 10 µM
IC50 (BT-474 cells): 6.47 µM
IC50 (NCI-H69 cells): 0.08 µM
IC50 (PBMC): 2.2 µM
IC50 (HPAF-II cells): 0.55 µM
IC50 (MHCC97H cells): > 10 µM
IC50 (LS-180 cells): 0.15 µM
IC50 (NCI-H2122 cells): 5.81 µM
IC50 (BL-2 cells): 0.18 µM
IC50 (MV-4-11 cells): 0.09 µM
IC50 (PATU-8988S cells): 0.47 µM
IC50 (PL-45 cells): 1.01 µM
IC50 (Calu-6 cells): 0.35 µM
IC50 (SW-480 cells): 0.48 µM
IC50 (CAMA-1 cells): 1.06 µM
IC50 (A549 cells): 0.57 µM
IC50 (MOLT4 cells): 0.04 µM
IC50 (HCI-H358 cells): 0.8 µM
IC50 (NCI-H1993 cells): > 10 µM
IC50 (NCI-H1563 cells): 0.39 µM
IC50 (MiaPaCa-2 cells): 0.88 µM

Reference: US12331040B2 (Karyopharm Therapeutics Inc., priority 2013, dated 2025)
